Source: EP4603105A1, “PHARMACEUTICAL COMPOSITION CONTAINING CYCLIC COMPOUND HAVING SELECTIVE KRAS INHIBITORY EFFECT AGAINST HRAS AND NRAS” (CHUGAI SEIYAKU KABUSHIKI KAISHA, priority 2022, dated 2024)
*1 amine or outer side, *2 acyl side, *3 side chain or, on linkers, in order; H or OH if unused. Where a SMILES comes first, the peptide text is derived from it. Bridges are numbered along the chain shown (N, C = ends). [ ]: non-standard residue; d: D form. The star is where a group is joined. ξ: configuration not given here. hPhe(3-Cl-4-CF3) = N[C@@H](CCc1ccc(C(F)(F)F)c(Cl)c1)C(=O)O; NPrPhe(4-CF3) = CCCN[C@@H](Cc1ccc(C(F)(F)F)cc1)C(=O)O; X46 = C=CCCN([C@@H](Cc1ccc(C)cc1)C(=O)[*:2])[*:1]; X41 = CCCN([C@@H](Cc1ccc(OC)cc1)C(=O)[*:2])[*:1]; X50 = C=CCN([C@@H](Cc1ccc(C)cc1)C(=O)[*:2])[*:1]; NPrPhe(4-Me) = CCCN[C@@H](Cc1ccc(C)cc1)C(=O)O; NMeGly(cPent) = CN[C@H](C(=O)O)C1CCCC1; Aze(3S-Me) = C[C@H]1CN[C@@H]1C(=O)O; NMeAllylGly = C=CC[C@H](NC)C(=O)O; NMeD = CN[C@@H](CC(=O)O)C(=O)O; NMeL = CN[C@@H](CC(C)C)C(=O)O; ξNMeD = CNC(CC(=O)O)C(=O)O; Morpholide = C1CN(*)CCO1; NMeA = CN[C@@H](C)C(=O)O; dNMeA = CN[C@H](C)C(=O)O; Ac5c = NC1(C(=O)O)CCCC1; Aze = O=C(O)[C@@H]1CCN1; ξP = O=C(O)C1CCCN1; NEtG = CCNCC(=O)O; Sar = CNCC(=O)O

Legend:
[1] = molecular target: GDP-bound NRAS wild-type protein (Homo sapiens, UniProt P01111); experiment: Binding to NRAS by surface plasmon resonance (SPR), KD and KD ratio to KRAS; conditions: ratio of KD for GDP-bound NRAS wild-type protein to KD for KRAS
Method in brief: (§1)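 Single-cycle kinetics on GDP-loaded biotin-Avi RAS captured to ~100–300 RU; 75 s ascending injections, 100 µL/min, 30°C. HBS pH 7.4 + 10 mM MgCl2/10 µM GDP/4% DMSO. 1:1 fit, KD.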

HRAS wild-type protein = HRAS wild-type protein (Homo sapiens, UniProt P01112); experiment: Binding to HRAS by surface plasmon resonance (SPR), KD and KD ratio to KRAS; conditions: ratio of KD for HRAS wild-type protein to KD for KRAS
Method in brief: as §1

[2] = tested on: human lung cancer strain NCI-H441; assay type: cell-based
Method in brief: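 Proliferation was scored by […] measured after the reagent was added to cultures kept at 37°C in 5% carbon dioxide.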

Chain of GDP-bound NRAS wild-type protein (P01111 whole entry): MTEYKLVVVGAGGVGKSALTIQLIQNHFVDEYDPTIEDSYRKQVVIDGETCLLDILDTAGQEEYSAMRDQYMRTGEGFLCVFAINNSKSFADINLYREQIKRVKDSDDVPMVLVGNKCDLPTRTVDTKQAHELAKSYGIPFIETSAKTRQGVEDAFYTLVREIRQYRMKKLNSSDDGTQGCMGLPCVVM
Chain of HRAS wild-type protein (P01112 whole entry): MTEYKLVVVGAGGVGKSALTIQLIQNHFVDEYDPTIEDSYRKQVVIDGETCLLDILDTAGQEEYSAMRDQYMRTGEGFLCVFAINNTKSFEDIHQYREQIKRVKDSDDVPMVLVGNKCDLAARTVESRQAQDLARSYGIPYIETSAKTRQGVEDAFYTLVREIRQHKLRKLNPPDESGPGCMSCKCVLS

SMILES | IC50 [2] | NRAS /KRAS [1] | HRAS /KRAS (HRAS wild-type protein)
CCCN1C(=O)[C@@H]2CCN2C(=O)[C@H](C)N(C)C(=O)[C@H]([C@@H](C)CC)NC(=O)[C@H](CC(C)C)N(C)C(=O)C[C@@H](C(=O)N2CCOCC2)N(C)C(=O)[C@H](C2CCCC2)N(C)C(=O)C2(CCCC2)NC(=O)[C@@H]2CCCN2C(=O)[C@H](CCc2ccc(C(F)(F)F)c(Cl)c2)NC(=O)CN(C)C(=O)[C@@H]1Cc1ccc(OC)cc1 [PP0134] ([NMeL]I[NMeA][Aze][X41][Sar][hPhe(3-Cl-4-CF3)]P[Ac5c][NMeGly(cPent)][NMeD]-Morpholide; lactam N-11) | 0.0185 µM | C (A compound having a KD ratio of 0.1 or more and less than 3 is denoted as C) | B (a compound having 3 or more and less than 10 is denoted as B)
CCCN1C(=O)CN(C)C(=O)CN(C)C(=O)[C@H]([C@@H](C)CC)NC(=O)[C@H](CC(C)C)N(C)C(=O)C[C@@H](C(=O)N2CCOCC2)N(C)C(=O)[C@H](C2CCCC2)N(C)C(=O)C2(CCCC2)NC(=O)[C@@H]2CCCN2C(=O)[C@H](CCc2ccc(C(F)(F)F)c(Cl)c2)NC(=O)CN(C)C(=O)[C@@H]1Cc1ccc(OC)cc1 [PP0135] ([NMeL]I[Sar][Sar][X41][Sar][hPhe(3-Cl-4-CF3)]P[Ac5c][NMeGly(cPent)][NMeD]-Morpholide; lactam N-11) | 0.0261 µM | B (a compound having 3 or more and less than 10 is denoted as B) | C (A compound having a KD ratio of 0.1 or more and less than 3 is denoted as C)
CCCN1C(=O)[C@@H]2[C@@H](C)CN2C(=O)[C@H](C)N(C)C(=O)[C@H]([C@@H](C)CC)NC(=O)[C@H](CC(C)C)N(C)C(=O)C[C@@H](C(=O)N2CCOCC2)N(C)C(=O)[C@H](C2CCCC2)N(C)C(=O)C2(CCCC2)NC(=O)[C@@H]2CCCN2C(=O)[C@H](CCc2ccc(C(F)(F)F)c(Cl)c2)NC(=O)CN(C)C(=O)[C@@H]1Cc1ccc(C)cc1 [PP0138] ([NMeL]I[NMeA][Aze(3S-Me)][NPrPhe(4-Me)][Sar][hPhe(3-Cl-4-CF3)]P[Ac5c][NMeGly(cPent)][NMeD]-Morpholide; lactam N-11) | 0.0206 µM | C (A compound having a KD ratio of 0.1 or more and less than 3 is denoted as C) | C (A compound having a KD ratio of 0.1 or more and less than 3 is denoted as C)
C=CC[C@H]1C(=O)N(CC=C)[C@@H](Cc2ccc(C)cc2)C(=O)N(C)CC(=O)N[C@@H](CCc2ccc(C(F)(F)F)c(Cl)c2)C(=O)N2CCC[C@H]2C(=O)NC2(CCCC2)C(=O)N(C)[C@@H](C2CCCC2)C(=O)N(C)[C@H](C(=O)N2CCOCC2)CC(=O)N(C)[C@@H](CC(C)C)C(=O)N[C@@H]([C@@H](C)CC)C(=O)N(C)CC(=O)N1C [PP0139] ([NMeL]I[Sar][NMeAllylGly][X50][Sar][hPhe(3-Cl-4-CF3)]P[Ac5c][NMeGly(cPent)][NMeD]-Morpholide; lactam N-11) | 1.5 µM | C (A compound having a KD ratio of 0.1 or more and less than 3 is denoted as C) | C (A compound having a KD ratio of 0.1 or more and less than 3 is denoted as C)
C=CCCN1C(=O)[C@H](CC=C)N(C)C(=O)CN(C)C(=O)[C@H]([C@@H](C)CC)NC(=O)[C@H](CC(C)C)N(C)C(=O)C[C@@H](C(=O)N2CCOCC2)N(C)C(=O)[C@H](C2CCCC2)N(C)C(=O)C2(CCCC2)NC(=O)[C@@H]2CCCN2C(=O)[C@H](CCc2ccc(C(F)(F)F)c(Cl)c2)NC(=O)CN(C)C(=O)[C@@H]1Cc1ccc(C)cc1 [PP0140] ([NMeL]I[Sar][NMeAllylGly][X46][Sar][hPhe(3-Cl-4-CF3)]P[Ac5c][NMeGly(cPent)][NMeD]-Morpholide; lactam N-11) | 0.713 µM | C (A compound having a KD ratio of 0.1 or more and less than 3 is denoted as C) | B (a compound having 3 or more and less than 10 is denoted as B)
CCCN1C(=O)[C@@H]2[C@@H](C)CN2C(=O)[C@H](C)N(C)C(=O)[C@H]([C@@H](C)CC)NC(=O)[C@H](CC(C)C)N(C)C(=O)C[C@@H](C(=O)N2CCOCC2)N(C)C(=O)[C@H](C2CCCC2)N(C)C(=O)C2(CCCC2)NC(=O)[C@@H]2CCCN2C(=O)[C@H](CCc2ccc(C(F)(F)F)c(Cl)c2)NC(=O)CN(C)C(=O)[C@@H]1Cc1ccc(C(F)(F)F)cc1 [PP0141] ([NMeL]I[NMeA][Aze(3S-Me)][NPrPhe(4-CF3)][Sar][hPhe(3-Cl-4-CF3)]P[Ac5c][NMeGly(cPent)][NMeD]-Morpholide; lactam N-11) | 0.0035 µM | C (A compound having a KD ratio of 0.1 or more and less than 3 is denoted as C) | B (a compound having 3 or more and less than 10 is denoted as B)

The next lines start with results.

IC50 [2] | SMILES | NRAS /KRAS [1] | HRAS /KRAS (HRAS wild-type protein)
0.0183 µM | CCCN1C(=O)CN(C)C(=O)CN(C)C(=O)[C@H]([C@@H](C)CC)NC(=O)[C@H](CC(C)C)N(C)C(=O)C[C@@H](C(=O)N2CCOCC2)N(C)C(=O)[C@H](C2CCCC2)N(C)C(=O)C2(CCCC2)NC(=O)CN(CC)C(=O)[C@H](CCc2ccc(C(F)(F)F)c(Cl)c2)NC(=O)CN(C)C(=O)[C@@H]1Cc1ccc(C(F)(F)F)cc1 [PP0144] ([NMeL]I[Sar][Sar][NPrPhe(4-CF3)][Sar][hPhe(3-Cl-4-CF3)][NEtG][Ac5c][NMeGly(cPent)][NMeD]-Morpholide; lactam N-11) | B (a compound having 3 or more and less than 10 is denoted as B) | C (A compound having a KD ratio of 0.1 or more and less than 3 is denoted as C)
0.0088 µM | CCCN1C(=O)CN(C)C(=O)CN(CC)C(=O)[C@H]([C@@H](C)CC)NC(=O)[C@H](CC(C)C)N(C)C(=O)C[C@@H](C(=O)N2CCOCC2)N(C)C(=O)[C@H](C2CCCC2)N(C)C(=O)C2(CCCC2)NC(=O)[C@@H]2CCCN2C(=O)[C@H](CCc2ccc(C(F)(F)F)c(Cl)c2)NC(=O)CN(C)C(=O)[C@@H]1Cc1ccc(C(F)(F)F)cc1 [PP0145] ([NMeL]I[NEtG][Sar][NPrPhe(4-CF3)][Sar][hPhe(3-Cl-4-CF3)]P[Ac5c][NMeGly(cPent)][NMeD]-Morpholide; lactam N-11) | B (a compound having 3 or more and less than 10 is denoted as B) | B (a compound having 3 or more and less than 10 is denoted as B)
0.0239 µM | CCCN1C(=O)CN(C)C(=O)CN(C)C(=O)[C@H]([C@@H](C)CC)NC(=O)[C@H](CC(C)C)N(C)C(=O)C[C@@H](C(=O)N2CCOCC2)NC(=O)[C@H](C2CCCC2)N(C)C(=O)C2(CCCC2)NC(=O)[C@@H]2CCCN2C(=O)[C@H](CCc2ccc(C(F)(F)F)c(Cl)c2)NC(=O)CN(C)C(=O)[C@@H]1Cc1ccc(C(F)(F)F)cc1 [PP0146] ([NMeL]I[Sar][Sar][NPrPhe(4-CF3)][Sar][hPhe(3-Cl-4-CF3)]P[Ac5c][NMeGly(cPent)]D-Morpholide; lactam N-11) | B (a compound having 3 or more and less than 10 is denoted as B) | B (a compound having 3 or more and less than 10 is denoted as B)
0.038 µM | CCCN1C(=O)CN(C)C(=O)CN(C)C(=O)[C@H]([C@@H](C)CC)NC(=O)[C@H](CC(C)C)N(C)C(=O)C[C@@H](C(=O)N2CCOCC2)N(C)C(=O)[C@H](C2CCCC2)N(C)C(=O)C2(CCCC2)NC(=O)[C@@H]2CCCN2C(=O)[C@H](CCc2ccc(C(F)(F)F)c(Cl)c2)NC(=O)[C@@H](C)N(C)C(=O)[C@@H]1Cc1ccc(C(F)(F)F)cc1 [PP0148] ([NMeL]I[Sar][Sar][NPrPhe(4-CF3)][dNMeA][hPhe(3-Cl-4-CF3)]P[Ac5c][NMeGly(cPent)][NMeD]-Morpholide; lactam N-11) | B (a compound having 3 or more and less than 10 is denoted as B) | B (a compound having 3 or more and less than 10 is denoted as B)
0.317 µM | CCCN1C(=O)CN(C)C(=O)CN(C)C(=O)[C@H]([C@@H](C)CC)NC(=O)[C@H](CC(C)C)N(C)C(=O)CC(C(=O)N2CCOCC2)N(C)C(=O)[C@H](C2CCCC2)N(C)C(=O)C2(CCCC2)NC(=O)[C@@H]2CCCN2C(=O)[C@H](CCc2ccc(C(F)(F)F)c(Cl)c2)NC(=O)C2CCCN2C(=O)[C@@H]1Cc1ccc(C(F)(F)F)cc1 (stereo partly drawn) [PP0149] ([NMeL]I[Sar][Sar][NPrPhe(4-CF3)][ξP][hPhe(3-Cl-4-CF3)]P[Ac5c][NMeGly(cPent)][ξNMeD]-Morpholide; lactam N-11) | C (A compound having a KD ratio of 0.1 or more and less than 3 is denoted as C) | B (a compound having 3 or more and less than 10 is denoted as B)
0.0491 µM | CCCN1C(=O)CN(C)C(=O)CN(C)C(=O)[C@H]([C@@H](C)CC)NC(=O)[C@H](CC(C)C)N(C)C(=O)C[C@@H](C(=O)N2CCOCC2)N(C)C(=O)[C@H](C2CCCC2)N(C)C(=O)[C@@H](C)NC(=O)[C@@H]2CCCN2C(=O)[C@H](CCc2ccc(C(F)(F)F)c(Cl)c2)NC(=O)CN(C)C(=O)[C@@H]1Cc1ccc(C(F)(F)F)cc1 [PP0150] ([NMeL]I[Sar][Sar][NPrPhe(4-CF3)][Sar][hPhe(3-Cl-4-CF3)]P[dA][NMeGly(cPent)][NMeD]-Morpholide; lactam N-11) | B (a compound having 3 or more and less than 10 is denoted as B) | C (A compound having a KD ratio of 0.1 or more and less than 3 is denoted as C)
